# Tests used:
# U251 cells = test: MIT assay, radiosensitizing effects of NS-160; assay type: cell-based, human; conditions: U251, 8 hour pretreatment, 0.2 μM, IR dose of 4 Gy
# Method: The dose-dependent radiosensitizing effects of NS-160 were investigated using an 8 hour pretreatment of 0.02 μM, 0.2 μM, and 2.0 μM NS-160 in U251 cells (FIG. 9). […] Therefore, NS-160 can act as a true radiosensitizer at low μM concentrations.
# zebrafish (ZF) embryos = test: Zebrafish embryo development and survival after drug plus IR; assay type: in vivo, Danio rerio
# Method: ZF were raised in accordance with previously established protocols (McAleer, et al., 2005, J. Radiat. Oncol. Biol. Phys. 61:10-3) at the University of Pennsylvania School of Medicine. Embryos were maintained at 30° C. after transplantation procedures. The age of embryos is indicated as the hours post-fertilization (hpf) and days post-fertilization (dpf) for all experimental data shown. […] Radiat. Oncol. Biol. Phys. 61:10-3) immediately after photography at 24 hpf. […]
# The radiosensitizing effects of NS-123 on human cancer cells but not normal cells prompted us to examine the potential of NS-123 in vivo. Zebra fish (ZF) (Danio rerio) embryos provide an unique vertebrate model that is ideal for the screening of therapeutic agents because of their close genetic and physiological homology to upper level vertebrates such as mammals, their rapid embryonic development, optical clarity, and suitability for investigations regarding the effects of radiation and radiosensitizers (Geiger et al., 2006, Cancer Res. 66:8172-8181; McAleer et al., 2005, Int. J. Radiat. Oncol. Biol. Phys. 61:10-13). These features allow the efficient screening of novel drugs and observation of effects on specific organs without the need for euthanization and necroscopy. The ZF embryos were pretreated for 8 hours with 5 μM NS-123 prior to 6 Gy of radiation.
SMILES,radiosensitization (U251 cells),embryonic development and viability after IR (zebrafish (ZF) embryos; 5 μM NS-123 (1 μM staurosporine) 8 hours before 6 Gy),morphologic effects in developing ZF with IR (zebrafish (ZF) embryos; drug + IR)
"N#Cc1ccc(Br)c([N+](=O)[O-])c1 [NS-160, 4-bromo-3-nitrobenzonitrile]",Radiosensitization was evident,–,–
CN[C@@H]1C[C@H]2O[C@@](C)([C@@H]1OC)n1c3ccccc3c3c4c(c5c6ccccc6n2c5c31)C(=O)NC4 [Staurosporine],–,greatly diminished the viability and development,morphologic changes consistent with increased toxicity

# Source: patent US8541476B2, “Compounds for treatment of malignant tumors” (The Trustees of the University of Pennsylvania, priority 2007, dated 2013)
